Assay results: US12187717B2, “Compound and use thereof in treating autoimmune diseases” (PARENCHYMA BIOTECH INC., priority 2022, dated 2025)

Experiments:
IL-6 = IL-6 production of A549 epithelial cells by IL-1β stimulation; format: cell-based, Human; conditions: A549, 5 μM, 48 hours then IL-1β 24 hours, vs control
Experimental: In order to assess the inhibitory effects of production of IL-6 by the compounds of the present invention prepared as above, an IL-6 production test of epithelial cells by stimulation of IL-1β was performed.
After recovering A549 cells under culture in DMEM-fetal bovine serum (FBS) 10% medium and confirming that the survival rate is 97% or more through trypan blue staining, the recovered product was centrifuged at a speed of 1200 rpm for 5 minutes at room temperature, and the cells were prepared by resuspending them in DMEM-10% fetal bovine serum medium at 1×10^6 cells/3 ml. Thereafter, the cells were dispensed by 3 ml onto a 60 mm plate, and each dish was treated with 50 μl of Compounds 6, 9, 21, 32 and 39 at a concentration of 5 μM diluted in DMEM medium, and then cultured in a cell incubator (5% CO2 incubator) for 48 hours. Then, the cells were treated with 50 μl of human recombinant IL-1β at a concentration of 12.5 ng/ml diluted in DMEM medium, followed by culturing the same in a cell incubator (5% CO2 incubator) for 24 hours. As a control, 50 μl of 0.05% dimethylsulfoxide (DMSO)/DMEM medium was used for treatment.
The cultured cells were recovered to prepare an mRNA sample. […] From the separated RNA, cDNA was synthesized by reverse transcription, and the expression of CYP1A1 was confirmed through a real-time polymerase chain reaction (PCR) using iQ SYBR-Green Supermix (Bio-rad) in a CFX96 (Bio-rad) detection system. […] Herein, one (1) fold was set using the control.
The real-time polymerase chain reaction was performed under the conditions of 45 cycles at an annealing temperature of 58° C., wherein the following primer sequences were used.

CYP1A1 = assay: Induction of CYP1A1 protein expression in HepG2 (7-ethoxyresorufin/resorufin); format: cell-based, Human; conditions: HepG2, 1 μM, 24 hours, vs control (vehicle)
Experimental: After recovering HepG2 under culture in DMEM-fetal bovine serum (FBS) 10% medium and then confirming that the survival rate is 97% or more through trypan blue staining, the recovered product was centrifuged at a speed of 1200 rpm for 5 minutes at room temperature, and the cells were prepared by resuspending them in DMEM-fetal calf serum 10% medium at 1.5×10^5 cells/ml.
Thereafter, the cells were dispensed onto a 96-well plate by 200 μl, and each plate was treated with 3 μl of Compounds 6, 21, 32 and 39 at a concentration of 1 μM diluted in DMEM medium, and then cultured in a cell incubator (5% CO2 incubator) for 24 hours. As a control, 3 μl of 0.05% dimethylsulfoxide (DMSO)/DMEM medium was used for treatment.
After 24 hours, the medium of the plate was discarded, washed with dPBS, treated with 100 μl of 2 μM 7-ethoxyresorufin, and cultured in a cell incubator (5% CO2 incubator) for 30 minutes. After 30 minutes, each 75 μl of fluorescamine (150 μg/ml) was treated, then resorufine excitation was measured at 535 nm and emission at 590 nm. The standard curve was measured and used with 0 to 50 pmol of resorufin solution.
After measurement, all solutions were removed, followed by treating the same with 25 μl of 0.5 M sodium hydroxide (NaOH), the cells were scraped and reacted in a shaker at room temperature for 15 minutes.
After 15 minutes, protein was quantified using a Bradford method, and a value was obtained using a calculation formula (sample resorufin amount/sample protein amount), and then one (1) fold was set using the control.

neutrophilic asthma = assay: Neutrophilic asthma model (LPS/OVA); format: in vivo, C57BL/6 mice; conditions: 10 mg/kg oral daily, 27th to 36th days, compared to solvent control
Experimental: Sensitization was induced in C57BL/6 mice (7 weeks old, female) by intranasally administering 10 μg of LPS (lipopolysaccharide, Sigma Aldrich, Cat No. L2630) and 75 μg of OVA (Ovalbumin, Sigma Aldrich, Cat No. A5503) diluted in phosphate buffered saline (20 μl in total) on the 0th, 1st, 2nd and 7th days of the experiment. From the 14th day of the experiment, 50 μg of OVA diluted in phosphate buffered saline was challenged by intranasal administration for a total of 8 times at an interval of 2 days a week until the 36th day. The intranasal administration was performed after anesthesia using an isoflurane inhalation anesthetic. In the compound 6 administration group according to an embodiment of the present invention, 10 mg/kg of Compound 6 per mouse was completely dissolved in an ethanol-Cremophor EL mixture corresponding to 7.5% (v/v) of the administered dose, and then, was diluted in phosphate buffered saline to prepare the final ethanol:Cremophor EL:phosphate buffered saline (0.375:0.375:9.25, v/v/v), followed by oral administration with 200 μl of the prepared solution daily for a total of 10 times from the 27th to the 36th days of the experiment.

O=C(Cc1c[nH]c2ccc(Cl)cc12)Nc1nc2ccc(N3CCOCC3)cc2s1 [Compound 6, 2-(5-chloro-1H-indol-3-yl)-N-(6-morpholinobenzo[d]thiazol-2-yl)acetamide]
IL-6 production of A549 by IL-1β stimulation (IL-6): significantly reduced
CYP1A1 protein expression level (CYP1A1): significantly higher
number of neutrophils in the bronchoalveolar lavage (BAL) (neutrophilic asthma): significantly decreased
